# Results taken from US6355799B1, “Substituted benzene compounds, process for their preparation, and herbicidal and defoliant compositions containing them” (ISK Americas Incorporated, priority 1997, dated 2002).
# Tests used:
# Type in all cases: in vivo
# [1] = system: redroot pigweed (Amaranthus retroflexus, AMARE); assay: Pre-emerge test, greenhouse herbicide activity screening; conditions: pre-emerge, phytotoxicity rating 0-100 at 14 days after application
# How it was run: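 Herbicidal damage is scored 0 (none) to 100 (complete plant death) two weeks after a simulated field spray. Rates span 15–1000 g ai/ha, delivered in acetone at 187 l/ha. For post-emergence treatments, plants have 2–3 leaves and the spray carries 0.25% v/v non-ionic surfactant.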
# [2] = system: barnyardgrass (Echinochloa crus-galli, ECHCG); assay: as above; conditions: pre-emerge, phytotoxicity rating 0-100 at 14 days after application
# How it was run: (§1)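 Rating: 0–100 visual injury, 14 DAA. Application: acetone, 187 l/ha, 15–1000 g ai/ha, flat-fan track sprayer with nozzle 40–45 cm above soil or canopy. Post-emerge runs used 0.25% v/v surfactant on 2–3 leaf plants.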
# [3] = system: green foxtail (Setaria viridis, SETVI); assay: as above; conditions: pre-emerge, phytotoxicity rating 0-100 at 14 days after application
# How it was run: as §1
# [4] = system: ivyleaf morningglory (Ipomoea hederacea, IPOHE); assay: as above; conditions: pre-emerge, phytotoxicity rating 0-100 at 14 days after application
# How it was run: as §1
# [5] = system: johnsongrass (Sorghum halepense, SORHA); assay: as above; conditions: pre-emerge, phytotoxicity rating 0-100 at 14 days after application
# How it was run: as §1
# [6] = system: lambsquarters (Chenopodium album, CHEAL); assay: as above; conditions: pre-emerge, phytotoxicity rating 0-100 at 14 days after application
# How it was run: as §1
# [7] = system: large crabgrass (Digitaria sanguinalis, DIGSA); assay: as above; conditions: pre-emerge, phytotoxicity rating 0-100 at 14 days after application
# How it was run: as §1
# [8] = system: sicklepod (Cassia obtusifolia, CASOB); assay: as above; conditions: pre-emerge, phytotoxicity rating 0-100 at 14 days after application
# How it was run: as §1
# [9] = system: velvetleaf (Abutilon theophrasti, ABUTH); assay: as above; conditions: pre-emerge, phytotoxicity rating 0-100 at 14 days after application
# How it was run: as §1
# [10] = system: field corn (Zea mays L., var. Dekalb 535, CORN); assay: Pre-emerge test, crop safety; conditions: crop damage, pre-emerge, phytotoxicity rating 0-100 at 14 days after application
# How it was run: (§2)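 Visual ratings on a 0-100 scale (0 no damage, 100 all plants dead) were taken at 14 days after treatment. Rates of 15-1000 g ai/ha in acetone, 187 l/ha, were sprayed onto soil one day after planting (pre-emerge) or onto 2-3 leaf plants with 0.25% v/v surfactant (post-emerge).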
# [11] = system: upland rice (Oryza sp., var. Tebonnet, RICE); assay: Pre-emerge test, crop safety; conditions: crop damage, pre-emerge, phytotoxicity rating 0-100 at 14 days after application
# How it was run: as §2
# [12] = system: barnyardgrass (Echinochloa crus-galli, ECHCG); assay: Post-emerge test, greenhouse herbicide activity screening; conditions: post-emerge, phytotoxicity rating 0-100 at 14 days after application
# How it was run: (§3)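 Compounds in acetone were track-sprayed at 187 l/ha, 15–1000 g ai/ha, onto sandy loam pots. Pre-emerge seeds were sown one day before spraying, with surface watering afterwards. Post-emerge plants were at the 2–3 leaf stage and sprayed with 0.25% v/v non-ionic surfactant. Injury was rated 0–100 at 14 days.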
# [13] = system: green foxtail (Setaria viridis, SETVI); assay: as above; conditions: post-emerge, phytotoxicity rating 0-100 at 14 days after application
# How it was run: as §3
# [14] = system: ivyleaf morningglory (Ipomoea hederacea, IPOHE); assay: as above; conditions: post-emerge, phytotoxicity rating 0-100 at 14 days after application
# How it was run: as §3
# [15] = system: johnsongrass (Sorghum halepense, SORHA); assay: as above; conditions: post-emerge, phytotoxicity rating 0-100 at 14 days after application
# How it was run: as §3
# [16] = system: lambsquarters (Chenopodium album, CHEAL); assay: as above; conditions: post-emerge, phytotoxicity rating 0-100 at 14 days after application
# How it was run: as §3
# [17] = system: large crabgrass (Digitaria sanguinalis, DIGSA); assay: as above; conditions: post-emerge, phytotoxicity rating 0-100 at 14 days after application
# How it was run: as §3
# [18] = system: redroot pigweed (Amaranthus retroflexus, AMARE); assay: as above; conditions: post-emerge, phytotoxicity rating 0-100 at 14 days after application
# How it was run: as §3
# [19] = system: sicklepod (Cassia obtusifolia, CASOB); assay: as above; conditions: post-emerge, phytotoxicity rating 0-100 at 14 days after application
# How it was run: as §3
# [20] = system: velvetleaf (Abutilon theophrasti, ABUTH); assay: as above; conditions: post-emerge, phytotoxicity rating 0-100 at 14 days after application
# How it was run: as §3
# [21] = system: field corn (Zea mays L., var. Dekalb 535, CORN); assay: Post-emerge test, crop safety; conditions: post-emerge, crop damage rating 0-100 at 14 days after application
# How it was run: (§4)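 Plants grown in 10 cm pots of sandy loam mix received acetone-dissolved compounds through a moving flat-fan nozzle. Doses ranged from 15 to 1000 g ai/ha. Pre-emerge pots were seeded one day earlier, post-emerge pots 8–21 days earlier. Fourteen days on, each pot was graded 0–100 for damage.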
# [22] = system: upland rice (Oryza sp., var. Tebonnet, RICE); assay: Post-emerge test, crop safety; conditions: post-emerge, crop damage rating 0-100 at 14 days after application
# How it was run: as §4
compound,measurement,setting,value
Cc1c(Cl)cc(F)c(-n2c(=O)cc(C(F)(F)F)n(C)c2=O)c1NC(=O)OCc1ccc([N+](=O)[O-])cc1 [4-64],Pre-emerge Herbicidal Activity AMARE,[1]; rate 63 g ai/ha,100
same,Pre-emerge Herbicidal Activity AMARE,[1]; rate 250 g ai/ha,100
same,Pre-emerge Herbicidal Activity ECHCG,[2]; rate 63 g ai/ha,30
same,Pre-emerge Herbicidal Activity ECHCG,[2]; rate 250 g ai/ha,70
same,Pre-emerge Herbicidal Activity SETVI,[3]; rate 63 g ai/ha,100
same,Pre-emerge Herbicidal Activity SETVI,[3]; rate 250 g ai/ha,100
same,Pre-emerge Herbicidal Activity IPOHE,[4]; rate 63 g ai/ha,40
same,Pre-emerge Herbicidal Activity IPOHE,[4]; rate 250 g ai/ha,70
same,Pre-emerge Herbicidal Activity SORHA,[5]; rate 63 g ai/ha,40
same,Pre-emerge Herbicidal Activity SORHA,[5]; rate 250 g ai/ha,80
same,Pre-emerge Herbicidal Activity CHEAL,[6]; rate 63 g ai/ha,100
same,Pre-emerge Herbicidal Activity CHEAL,[6]; rate 250 g ai/ha,100
same,Pre-emerge Herbicidal Activity DIGSA,[7]; rate 63 g ai/ha,100
same,Pre-emerge Herbicidal Activity DIGSA,[7]; rate 250 g ai/ha,100
same,Pre-emerge Herbicidal Activity CASOB,[8]; rate 63 g ai/ha,20
same,Pre-emerge Herbicidal Activity CASOB,[8]; rate 250 g ai/ha,90
same,Pre-emerge Herbicidal Activity ABUTH,[9]; rate 63 g ai/ha,100
same,Pre-emerge Herbicidal Activity ABUTH,[9]; rate 250 g ai/ha,100
same,Pre-emerge Herbicidal Activity CORN,[10]; rate 63 g ai/ha,0
same,Pre-emerge Herbicidal Activity CORN,[10]; rate 250 g ai/ha,45
same,Pre-emerge Herbicidal Activity RICE,[11]; rate 63 g ai/ha,30
same,Pre-emerge Herbicidal Activity RICE,[11]; rate 250 g ai/ha,80
same,Post-emerge Herbicidal Activity ECHCG,[12]; 63 g ai/ha,20
same,Post-emerge Herbicidal Activity ECHCG,[12]; 250 g ai/ha,30
same,Post-emerge Herbicidal Activity SETVI,[13]; 63 g ai/ha,50
same,Post-emerge Herbicidal Activity SETVI,[13]; 250 g ai/ha,80
same,Post-emerge Herbicidal Activity IPOHE,[14]; 63 g ai/ha,100
same,Post-emerge Herbicidal Activity IPOHE,[14]; 250 g ai/ha,100
same,Post-emerge Herbicidal Activity SORHA,[15]; 63 g ai/ha,10
same,Post-emerge Herbicidal Activity SORHA,[15]; 250 g ai/ha,30
same,Post-emerge Herbicidal Activity CHEAL,[16]; 63 g ai/ha,100
same,Post-emerge Herbicidal Activity CHEAL,[16]; 250 g ai/ha,100
same,Post-emerge Herbicidal Activity DIGSA,[17]; 63 g ai/ha,10
same,Post-emerge Herbicidal Activity DIGSA,[17]; 250 g ai/ha,30
same,Post-emerge Herbicidal Activity AMARE,[18]; 63 g ai/ha,100
same,Post-emerge Herbicidal Activity AMARE,[18]; 250 g ai/ha,100
same,Post-emerge Herbicidal Activity CASOB,[19]; 63 g ai/ha,60
same,Post-emerge Herbicidal Activity CASOB,[19]; 250 g ai/ha,100
same,Post-emerge Herbicidal Activity ABUTH,[20]; 63 g ai/ha,100
same,Post-emerge Herbicidal Activity ABUTH,[20]; 250 g ai/ha,100
same,Post-emerge Herbicidal Activity CORN,[21]; 63 g ai/ha,30
same,Post-emerge Herbicidal Activity CORN,[21]; 250 g ai/ha,40
same,Post-emerge Herbicidal Activity RICE,[22]; 63 g ai/ha,15
same,Post-emerge Herbicidal Activity RICE,[22]; 250 g ai/ha,50
